Values of other authors, collected in US20090012008A1, “Pharmaceutical Composition for Photodynamic Therapy and a Method for Treating Oncological Diseases by Using Said Composition” (priority 2005, published 2009).

Columns and labels:
[1] = test system: tumor cells of the HeLa S3 line; settings: HeLa S3, in vitro

| Compound | effect on viability and proliferation rate (keratinocytes) | effect on viability and proliferation rate (fibroblasts) | cytotoxic activity [1] |
| --- | --- | --- | --- |
| c12c3c4c5c1c1c6c7c2c2c8c3c3c9c4c4c%10c5c5c1c1c6c6c%11c7c2c2c7c8c3c3c8c9c4c4c9c%10c5c5c1c1c6c6c%11c2c2c7c3c3c8c4c4c9c5c1c1c6c2c3c41 [fullerene C60] | no effect | no effect |  |
| fullerocyclopentane |  |  | manifest only upon irradiation with light |
